Series [1] concerns Cryptococcus neoformans. As to the kind of experiment: Fungicidal activity against wild type Cryptococcus neoformans H99 assessed as minimum concentration required to kill fungus measured after 24 hrs by time-kill assay. The series is classed as functional.
The subject of series [2] is Cryptococcus neoformans. As to the kind of experiment: Antifungal activity against wild type Cryptococcus neoformans H99 assessed as fractional inhibitory concentration index in presence of amphotericin B. In kind it is functional.
Series [3] deals with Cryptococcus neoformans. As to the kind of experiment: Synergistic antifungal activity against wild type Cryptococcus neoformans H99 assessed as fractional inhibitory concentration index in presence of fluconazole. In kind it is functional.
In series [4] the test system is Candida albicans. As to the kind of experiment: Antifungal activity against Candida albicans assessed as inhibition of fungal growth incubated for 24 to 72 hrs by optical density based analysis. In kind it is functional. The settings on record: time 24-72 hrs.
In series [5] the test system is Cryptococcus neoformans. Description: Synergistic antifungal activity against wild type Cryptococcus neoformans H99 assessed as fractional inhibitory concentration index in presence of caspofungin. In kind it is functional.
For series [6], the system named is Cryptococcus neoformans. Description: Antifungal activity against wild type Cryptococcus neoformans H99 assessed as inhibition of fungal growth in presence of caspofungin. In kind it is functional.
Series [7] has as its system Cryptococcus neoformans. Description: Antifungal activity against wild type Cryptococcus neoformans H99 assessed as inhibition of fungal growth incubated for 24 to 72 hrs by optical density based analysis. The series is classed as functional. As to conditions: time 24-72 hrs.
For series [8], the system named is Cryptococcus neoformans. As to the kind of experiment: Antifungal activity against wild type Cryptococcus neoformans H99 assessed as inhibition of fungal growth in presence of fluconazole. In kind it is functional.
For series [9], the system named is Cryptococcus neoformans. As to the kind of experiment: Antifungal activity against wild type Cryptococcus neoformans H99 assessed as inhibition of fungal growth in presence of amphotericin B. The series is classed as functional.
Series [10] has as its system Aspergillus fumigatus. Description: Antifungal activity against Aspergillus fumigatus assessed as inhibition of fungal growth incubated for 24 to 72 hrs by optical density based analysis. As to conditions: time 24-72 hrs. The series is classed as functional.
Series [11] is described as follows: Cytotoxicity against human A549 cells assessed as cell killing measured after 24 to 48 hrs by MTT assay. In kind it is toxicity, cell-based. As to conditions: time 24-48 hrs, read-out: LD50 (the source's name).
Series [12] relates to Cryptococcus neoformans. As to the kind of experiment: Antagonistic antifungal activity against wild type Cryptococcus neoformans H99 in presence of caspofungin. The series is classed as functional, organism-based.
The test system of series [13] is Cryptococcus neoformans. As to the kind of experiment: Antagonistic antifungal activity against wild type Cryptococcus neoformans H99 in presence of fluconazole. The series is classed as functional, organism-based.
Series [14] relates to Cryptococcus neoformans. Description: Antagonistic antifungal activity against wild type Cryptococcus neoformans H99 in presence of amphotericin B. In kind it is functional, organism-based.
Series [15] can be described thus: Selectivity index, ratio of LD50 for human A549 cells to MIC80 for Cryptococcus neoformans H99. In kind it is toxicity. As to conditions: read-out: Selectivity Index.
Series [16] relates to Cryptococcus neoformans. As to the kind of experiment: Fungicidal activity against wild type Cryptococcus neoformans H99 assessed as minimum concentration required to kill fungus measured after 72 hrs by time-kill assay. In kind it is functional.
Series [17] deals with Cryptococcus neoformans. Description: Fungicidal activity against wild type Cryptococcus neoformans H99 assessed as minimum concentration required to kill fungus measured after 12 hrs by time-kill assay. In kind it is functional.
Series [18] relates to Cryptococcus neoformans. Description: Synergistic antifungal activity against wild type Cryptococcus neoformans H99 assessed as fractional inhibitory concentration index in presence of amphotericin B. In kind it is functional.
Series [19] has as its system Cryptococcus neoformans. As to the kind of experiment: Fungicidal activity against wild type Cryptococcus neoformans H99 assessed as minimum concentration required to kill fungus measured after 48 hrs by time-kill assay. In kind it is functional.
In series [20] the test system is Cryptococcus neoformans. Description: Antifungal activity against wild type Cryptococcus neoformans H99 assessed as fractional inhibitory concentration index in presence of fluconazole. In kind it is functional.
Series [21] deals with Cryptococcus neoformans. As to the kind of experiment: Fungicidal activity against wild type Cryptococcus neoformans H99 assessed as minimum concentration required to kill fungus measured after 96 hrs by time-kill assay. In kind it is functional.

Converted amounts (≈) assume the structure as drawn. The source made the active and inactive calls. The rule behind the calls is not given here.

On to `O=C(N/N=C/c1cc(Br)ccc1O)c1ccc(Br)o1`, for which the MFC100 in [1] was determined as 0.25 µg/mL (≈ 0.644 µM). Further, the “fractional inhibitory concentration index (FICI)” value in series [2] is on record as 1.12; in [3], 0.56; in [5], 0.75. Also, the MIC80 was 1 µg/mL (≈ 2.58 µM) in [4]; 0.06 µg/mL in [6]; 0.12 µg/mL (≈ 0.309 µM) in [7]; 0.06 µg/mL in [8]; 0.015 µg/mL in series [9]; 0.25 µg/mL (≈ 0.644 µM) in series [10]. In addition, the CC50 in series [11] is greater than 32 µg/mL. Further, the outcome in series [12], in series [13] and in series [14] was inactive. For the same compound, the selectivity ratio in [15] is greater than 533.

Turning to `O=C(N/N=C/c1ccc(Br)cc1O)c1ccc(C(F)(F)F)o1`, the MIC80 in series [7] turned out to be 1 µg/mL (≈ 2.65 µM). The CC50 in series [11] stood at 4 µg/mL (≈ 10.6 µM). The MFC100 in series [16] was determined as 4 µg/mL (≈ 10.6 µM). Also, the selectivity ratio in [15] is 4.

For the compound `O=C(N/N=C/c1cc(Br)cc(Br)c1O)c1cc(Br)c(Br)o1`, the MFC100 in series [17] is 0.12 µg/mL (≈ 0.22 µM). The MIC80 in series [7] is 0.12 µg/mL (≈ 0.22 µM). For the same compound, in series [11], the CC50 worked out at 16 µg/mL (≈ 29.3 µM). For the same compound, the selectivity ratio in series [15] stood at 133.

Take `O=C(N/N=C/c1ccc(Br)cc1O)c1ccc(Br)o1`: the MFC100 in series [1] came to 0.5 µg/mL (≈ 1.29 µM). For the same compound, the figures for the “fractional inhibitory concentration index (FICI)” value in series [3], in series [18] and in [5] were 0.25, 0.53 and 0.37, respectively. Besides, the MIC80 in [4] is 0.5 µg/mL (≈ 1.29 µM); in series [6] it was 0.015 µg/mL; in series [7], 0.12 µg/mL (≈ 0.309 µM); in series [8] it was 0.015 µg/mL; in [9], 0.015 µg/mL; in series [10], 0.5 µg/mL (≈ 1.29 µM). Moreover, the CC50 in series [11] was greater than 32 µg/mL. In addition, the result in [12], in [13] and in series [14] was inactive. In addition, the selectivity ratio in [15] was greater than 533.

Take `O=C(N/N=C/c1cc(Br)cc(Br)c1O)c1csc(Br)c1`: the MFC100 in series [17] amounted to 0.25 µg/mL (≈ 0.518 µM). Further, in series [7], the MIC80 came out at 0.12 µg/mL (≈ 0.248 µM). The CC50 in series [11] is 16 µg/mL (≈ 33.1 µM). Further, in [15], the selectivity ratio turned out to be 133.

Turning to `O=C(N/N=C/c1cc(Br)ccc1O)c1csc(Br)c1`, the MFC100 in series [19] worked out at 0.06 µg/mL (≈ 0.148 µM). For the same compound, the MIC80 in series [4] is 0.125 µg/mL (≈ 0.309 µM); in [6], 0.015 µg/mL; in [7] it was 0.014 µg/mL (≈ 0.0346 µM); in [8], 0.002 µg/mL; in [9], 0.001 µg/mL; in series [10], 1 µg/mL (≈ 2.47 µM). For the same compound, the entries for the “fractional inhibitory concentration index (FICI)” value in series [18], in [5] and in series [20] were 0.53, 0.14 and 1.1, respectively. For the same compound, the CC50 in [11] is greater than 32 µg/mL. Besides, the result in series [12], in [13] and in series [14] was inactive. Further, the selectivity ratio in series [15] was greater than 1070.

Consider `O=C(N/N=C/c1ccc(Br)cc1O)c1cc(Br)co1`, for which, in series [21], the MFC100 stood at 2 µg/mL (≈ 5.15 µM). Also, the MIC80 in series [7] was 0.5 µg/mL (≈ 1.29 µM). Moreover, the CC50 in [11] worked out at 16 µg/mL (≈ 41.2 µM). Besides, in series [15], the selectivity ratio is 32.

For `O=C(N/N=C/c1ccc(Br)cc1O)c1cc(Br)c(Br)s1`, the MFC100 in series [1] was 0.5 µg/mL (≈ 1.04 µM). The entries for the “fractional inhibitory concentration index (FICI)” value in series [3], in series [18] and in series [5] were 0.6, 0.78 and 0.78, respectively. Besides, the MIC80 in series [4] is 0.125 µg/mL (≈ 0.259 µM); in [6], 0.001 µg/mL; in series [7], 0.002 µg/mL (≈ 0.00414 µM); in series [8], 0.001 µg/mL; in series [9], 0.001 µg/mL; in series [10], 0.06 µg/mL (≈ 0.124 µM). In [11], the CC50 is greater than 32 µg/mL. Further, the outcome in series [12], in [13] and in series [14] was inactive. For the same compound, the selectivity ratio in series [15] is greater than 533.

Broadly, the MIC80 is the lowest concentration that inhibits either 80% of growth or 80% of the strains tested, depending on the study.

The record behind these values is ChEMBL document CHEMBL5523691, “SAR study of N'-(Salicylidene)heteroarenecarbohydrazides as promising antifungal agents” (Bioorg Med Chem, 2024).
